# Data published in patent US12622910B2, “Inhibitors of Bruton's tyrosine kinase and methods of their use” (Janssen Pharmaceutica NV, priority 2021, dated 2026).
# Key:
# 5-HT1A (h) = 5-HT1A (h) (Homo sapiens, UniProt P08908); experiment: Receptor panel, Study 1; format: binding
# Description: (§1) RESULTS AND DISCUSSION—Selectivity—The compound of Formula (III) was evaluated in three selectivity panels to assess the potential for off-target pharmacology (Table 8). […] The kinase off-target profile of The compound of Formula (III) was assessed in a full human wild-type panel using radiometric kinase activity assays (KinaseProfiler™ and IC50Profiler™; Eurofins Scientific) (Table 9; FIG. 23). The compound of Formula (III) inhibited 4/278 kinases >50% at 1 micromolar, identifying BTK and the three other kinases having analogous Cys residues with the potential for covalent inhibition (BMX, TEC, BLK). […]. The cellular kinase selectivity of The compound of Formula (III) was established in native Ramos B cell kinome assays (KiNativ™; ActivX) confirmed BTK as the primary target with inhibition of BLK and TEC inhibition detected (Table 10).
# 5-HT2A (h) = 5-HT2A (h) (Homo sapiens, UniProt P28223); experiment: Receptor panel, Study 1; format: binding
# Description: as §1
# 5-HT3 (h) = 5-HT3 (h) (Homo sapiens, UniProt P46098); experiment: Receptor panel, Study 1; format: binding
# Description: as §1
# 5-HT5A (h) = 5-HT5A (h) (Homo sapiens, UniProt P47898); experiment: Receptor panel, Study 1; format: binding
# Description: as §1
# 5-HT7 (h) = 5-HT7 (h) (Homo sapiens, UniProt P34969); experiment: Receptor panel, Study 1; format: binding
# Description: as §1
# A1 (h) = A1 (h) (Homo sapiens, UniProt P30542); experiment: Receptor panel, Study 1; format: binding
# Description: as §1
# A2A (h) = A2A (h) (Homo sapiens, UniProt P29274); experiment: Receptor panel, Study 1; format: binding
# Description: as §1
# A3 (h) = A3 (h) (Homo sapiens, UniProt P0DMS8); experiment: Receptor panel, Study 1; format: binding
# Description: as §1
# AT1 (h) = AT1 (h) (Homo sapiens, UniProt P30556); experiment: Receptor panel, Study 1; format: binding
# Description: as §1
# B2 (h) = B2 (h) (Homo sapiens, UniProt P30411); experiment: Receptor panel, Study 1; format: binding
# Description: as §1
# CCKA (h) (CCK1) = CCKA (h) (CCK1) (Homo sapiens, UniProt P32238); experiment: Receptor panel, Study 1; format: binding
# Description: as §1
# Ca^2+ channel = experiment: Receptor panel, Study 1; format: binding
# Description: as §1
# Cl^− channel = experiment: Receptor panel, Study 1; format: binding
# Description: as §1
# D2S (h) = D2S (h) (Homo sapiens, UniProt P14416); experiment: Receptor panel, Study 1; format: binding
# Description: as §1
# DA transporter (h) = DA transporter (h) (Homo sapiens, UniProt Q01959); experiment: Receptor panel, Study 1; format: binding
# Description: as §1
# GABA = experiment: Receptor panel, Study 1; format: binding
# Description: as §1
# H2 (h) = H2 (h) (Homo sapiens, UniProt P25021); experiment: Receptor panel, Study 1; format: binding
# Description: as §1
# K^+V channel = experiment: Receptor panel, Study 1; format: binding
# Description: as §1
# M1 (h) = M1 (h) (Homo sapiens, UniProt P11229); experiment: Receptor panel, Study 1; format: binding
# Description: as §1
# M2 (h) = M2 (h) (Homo sapiens, UniProt P08172); experiment: Receptor panel, Study 1; format: binding
# Description: as §1
# MC4 (h) = MC4 (h) (Homo sapiens, UniProt P32245); experiment: Receptor panel, Study 1; format: binding
# Description: as §1
# MT1 (h) = MT1 (h) (Homo sapiens, UniProt P48039); experiment: Receptor panel, Study 1; format: binding
# Description: as §1
# NE transporter (h) = NE transporter (h) (Homo sapiens, UniProt P23975); experiment: Receptor panel, Study 1; format: binding
# Description: as §1
# NK2 (h) = NK2 (h) (Homo sapiens, UniProt P21452); experiment: Receptor panel, Study 1; format: binding
# Description: as §1
# NK3 (h) = NK3 (h) (Homo sapiens, UniProt P29371); experiment: Receptor panel, Study 1; format: binding
# Description: as §1
# Na^+ channel (site 2) = experiment: Receptor panel, Study 1; format: binding
# Description: as §1
# ORL1 (h) (NOP) = ORL1 (h) (NOP) (Homo sapiens, UniProt P41146); experiment: Receptor panel, Study 1; format: binding
# Description: as §1
# SK^+Ca channel = experiment: Receptor panel, Study 1; format: binding
# Description: as §1
# Y1 (h) = Y1 (h) (Homo sapiens, UniProt P25929); experiment: Receptor panel, Study 1; format: binding
# Description: as §1
# Y2 (h) = Y2 (h) (Homo sapiens, UniProt P49146); experiment: Receptor panel, Study 1; format: binding
# Description: as §1
# alpha 2 = experiment: Receptor panel, Study 1; format: binding
# Description: as §1
# beta 1 (h) = beta 1 (h) (Homo sapiens, UniProt P08588); experiment: Receptor panel, Study 1; format: binding
# Description: as §1
# kappa (KOP) = experiment: Receptor panel, Study 1; format: binding
# Description: as §1
# mu (h) (MOP) = mu (h) (MOP) (Homo sapiens, UniProt P35372); experiment: Receptor panel, Study 1; format: binding
# Description: as §1
# sst (non-selective) = experiment: Receptor panel, Study 1; format: binding
# Description: as §1
# [1] = Metabolic stability in liver microsomes; format: in vitro ADME, human
# Description: Additional Data on Preclinical PK Profile—Protein binding of the compound of Formula (III) was studied using an equilibrium dialysis method in plasma from human, cynomolgus monkey, beagle dog, Sprague Dawley rat, CD-1 mouse, and guinea pig at 0.25, 2.5, and 25 μM. […] In human and monkey, the plasma protein binding was concentration dependent. […] Free fraction of the compound of Formula (III) in liver microsomes from various species ranged from 75.1% to 87.9% at 0.25 mg/mL and from 58.9% to 86.5% at 1.0 mg/mL (Table 17). […] In hepatocytes, the compound of Formula (III) turnover followed a similar trend, with T1/2 ranging from 75.3 minutes in monkey to 278.1 minutes in human.
# Sequence of A2A (h) (P29274 whole entry): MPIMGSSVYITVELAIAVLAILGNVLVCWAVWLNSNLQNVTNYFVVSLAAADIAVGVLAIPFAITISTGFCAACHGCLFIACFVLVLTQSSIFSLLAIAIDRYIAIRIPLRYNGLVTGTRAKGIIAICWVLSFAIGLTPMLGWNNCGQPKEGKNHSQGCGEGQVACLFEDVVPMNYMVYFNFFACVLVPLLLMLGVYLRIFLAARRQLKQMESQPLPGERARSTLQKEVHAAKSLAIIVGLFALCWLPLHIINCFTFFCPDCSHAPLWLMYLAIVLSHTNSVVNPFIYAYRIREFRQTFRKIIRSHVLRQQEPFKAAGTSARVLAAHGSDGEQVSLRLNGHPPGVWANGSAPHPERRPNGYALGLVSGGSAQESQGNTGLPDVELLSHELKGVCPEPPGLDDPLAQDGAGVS
# Sequence of beta 1 (h) (P08588 whole entry): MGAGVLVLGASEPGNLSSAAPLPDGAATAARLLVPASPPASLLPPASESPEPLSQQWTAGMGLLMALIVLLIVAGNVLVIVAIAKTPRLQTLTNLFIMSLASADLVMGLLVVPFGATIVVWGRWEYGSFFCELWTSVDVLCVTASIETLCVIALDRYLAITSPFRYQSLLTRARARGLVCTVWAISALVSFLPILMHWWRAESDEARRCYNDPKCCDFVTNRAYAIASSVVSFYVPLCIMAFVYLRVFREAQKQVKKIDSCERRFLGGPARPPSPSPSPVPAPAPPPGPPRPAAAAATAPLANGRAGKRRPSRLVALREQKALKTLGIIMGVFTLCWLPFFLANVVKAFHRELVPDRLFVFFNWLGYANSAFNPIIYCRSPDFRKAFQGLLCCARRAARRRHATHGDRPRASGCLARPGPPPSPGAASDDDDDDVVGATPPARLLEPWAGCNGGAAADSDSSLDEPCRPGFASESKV
# Sequence of B2 (h) (P30411 whole entry): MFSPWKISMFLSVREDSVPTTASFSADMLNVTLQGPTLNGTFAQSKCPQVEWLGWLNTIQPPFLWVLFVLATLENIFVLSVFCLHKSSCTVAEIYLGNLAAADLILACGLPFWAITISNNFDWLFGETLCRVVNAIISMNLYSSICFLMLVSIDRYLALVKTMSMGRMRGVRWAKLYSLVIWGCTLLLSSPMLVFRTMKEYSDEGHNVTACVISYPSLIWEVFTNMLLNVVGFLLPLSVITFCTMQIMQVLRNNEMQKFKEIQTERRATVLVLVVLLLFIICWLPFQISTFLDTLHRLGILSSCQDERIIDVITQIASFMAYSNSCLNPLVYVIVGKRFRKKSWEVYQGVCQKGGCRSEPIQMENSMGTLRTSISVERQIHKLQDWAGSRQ
# Sequence of Y2 (h) (P49146 whole entry): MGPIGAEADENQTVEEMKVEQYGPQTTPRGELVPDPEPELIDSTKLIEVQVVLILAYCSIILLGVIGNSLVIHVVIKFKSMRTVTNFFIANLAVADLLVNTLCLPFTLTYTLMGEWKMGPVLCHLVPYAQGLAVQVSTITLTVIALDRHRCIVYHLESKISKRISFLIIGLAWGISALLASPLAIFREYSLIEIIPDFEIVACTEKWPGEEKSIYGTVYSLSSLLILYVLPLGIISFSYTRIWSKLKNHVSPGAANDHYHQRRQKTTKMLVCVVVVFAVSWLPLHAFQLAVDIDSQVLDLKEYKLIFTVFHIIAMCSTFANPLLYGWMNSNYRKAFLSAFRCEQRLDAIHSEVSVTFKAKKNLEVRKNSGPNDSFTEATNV
# Sequence of H2 (h) (P25021 whole entry): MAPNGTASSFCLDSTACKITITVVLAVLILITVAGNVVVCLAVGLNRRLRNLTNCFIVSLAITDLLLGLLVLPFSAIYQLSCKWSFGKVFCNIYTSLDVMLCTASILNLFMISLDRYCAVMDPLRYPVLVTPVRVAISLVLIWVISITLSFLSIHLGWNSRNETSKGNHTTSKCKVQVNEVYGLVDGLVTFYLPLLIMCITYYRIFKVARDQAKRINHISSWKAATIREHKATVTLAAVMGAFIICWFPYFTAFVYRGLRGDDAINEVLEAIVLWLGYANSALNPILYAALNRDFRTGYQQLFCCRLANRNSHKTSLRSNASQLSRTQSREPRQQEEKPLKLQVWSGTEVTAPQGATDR
# Sequence of mu (h) (MOP) (P35372 whole entry): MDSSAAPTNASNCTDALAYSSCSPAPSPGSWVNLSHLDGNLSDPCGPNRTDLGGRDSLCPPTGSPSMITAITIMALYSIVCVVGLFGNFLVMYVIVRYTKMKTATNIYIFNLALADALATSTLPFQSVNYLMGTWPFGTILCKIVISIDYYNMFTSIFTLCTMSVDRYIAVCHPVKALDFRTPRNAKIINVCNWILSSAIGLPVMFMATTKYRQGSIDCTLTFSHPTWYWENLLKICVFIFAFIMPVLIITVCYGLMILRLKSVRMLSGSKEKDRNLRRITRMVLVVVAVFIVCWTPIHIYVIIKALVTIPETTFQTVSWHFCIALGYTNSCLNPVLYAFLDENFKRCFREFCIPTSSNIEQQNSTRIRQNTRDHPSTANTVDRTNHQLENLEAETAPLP
# Sequence of CCKA (h) (CCK1) (P32238 whole entry): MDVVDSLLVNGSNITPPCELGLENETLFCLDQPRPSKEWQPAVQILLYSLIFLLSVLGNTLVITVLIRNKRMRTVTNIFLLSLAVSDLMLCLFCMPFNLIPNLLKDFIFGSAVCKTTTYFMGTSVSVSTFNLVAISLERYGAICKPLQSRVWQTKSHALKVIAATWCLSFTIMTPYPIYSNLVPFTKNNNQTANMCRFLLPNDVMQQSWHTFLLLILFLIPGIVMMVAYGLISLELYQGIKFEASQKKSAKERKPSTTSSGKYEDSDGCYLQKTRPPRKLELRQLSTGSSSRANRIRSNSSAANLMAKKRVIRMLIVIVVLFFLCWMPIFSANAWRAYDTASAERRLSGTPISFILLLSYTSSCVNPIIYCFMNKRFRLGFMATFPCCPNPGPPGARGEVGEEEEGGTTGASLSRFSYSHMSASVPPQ
# Sequence of 5-HT1A (h) (P08908 whole entry): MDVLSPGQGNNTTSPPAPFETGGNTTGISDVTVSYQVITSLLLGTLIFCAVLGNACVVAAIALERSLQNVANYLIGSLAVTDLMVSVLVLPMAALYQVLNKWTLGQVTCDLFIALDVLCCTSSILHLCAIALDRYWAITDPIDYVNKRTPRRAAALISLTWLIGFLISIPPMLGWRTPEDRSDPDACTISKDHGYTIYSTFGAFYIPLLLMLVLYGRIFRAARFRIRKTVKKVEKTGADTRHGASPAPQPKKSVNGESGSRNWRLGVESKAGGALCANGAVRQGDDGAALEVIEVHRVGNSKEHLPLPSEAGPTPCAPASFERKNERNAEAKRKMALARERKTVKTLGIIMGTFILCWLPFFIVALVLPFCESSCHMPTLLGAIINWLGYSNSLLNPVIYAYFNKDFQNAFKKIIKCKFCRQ
# Sequence of 5-HT7 (h) (P34969 whole entry): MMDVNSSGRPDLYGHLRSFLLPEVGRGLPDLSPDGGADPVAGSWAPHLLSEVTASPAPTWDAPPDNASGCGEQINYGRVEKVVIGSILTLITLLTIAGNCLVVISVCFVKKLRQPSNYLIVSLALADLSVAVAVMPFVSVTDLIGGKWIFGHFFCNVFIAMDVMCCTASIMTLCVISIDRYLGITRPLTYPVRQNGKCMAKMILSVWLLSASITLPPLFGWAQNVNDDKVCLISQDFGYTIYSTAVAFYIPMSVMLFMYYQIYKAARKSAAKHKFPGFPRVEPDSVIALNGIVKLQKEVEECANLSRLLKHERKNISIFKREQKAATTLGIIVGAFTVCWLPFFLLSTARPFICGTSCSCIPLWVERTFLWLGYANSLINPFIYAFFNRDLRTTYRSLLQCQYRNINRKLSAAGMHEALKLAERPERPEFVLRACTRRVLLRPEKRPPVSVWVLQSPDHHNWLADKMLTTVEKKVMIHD
# Sequence of NK3 (h) (P29371 whole entry): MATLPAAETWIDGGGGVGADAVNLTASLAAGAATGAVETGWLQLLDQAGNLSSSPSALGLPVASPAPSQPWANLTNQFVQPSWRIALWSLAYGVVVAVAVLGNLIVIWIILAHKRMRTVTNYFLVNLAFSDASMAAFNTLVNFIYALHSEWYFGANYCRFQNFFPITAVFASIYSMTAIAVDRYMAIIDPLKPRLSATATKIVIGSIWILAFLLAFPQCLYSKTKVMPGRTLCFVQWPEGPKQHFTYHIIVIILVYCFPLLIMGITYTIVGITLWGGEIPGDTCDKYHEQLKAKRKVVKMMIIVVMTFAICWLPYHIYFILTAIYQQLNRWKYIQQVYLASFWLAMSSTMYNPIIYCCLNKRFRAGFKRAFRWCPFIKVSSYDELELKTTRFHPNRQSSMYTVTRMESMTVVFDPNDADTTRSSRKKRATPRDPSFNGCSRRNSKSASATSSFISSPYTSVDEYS
# Sequence of M1 (h) (P11229 whole entry): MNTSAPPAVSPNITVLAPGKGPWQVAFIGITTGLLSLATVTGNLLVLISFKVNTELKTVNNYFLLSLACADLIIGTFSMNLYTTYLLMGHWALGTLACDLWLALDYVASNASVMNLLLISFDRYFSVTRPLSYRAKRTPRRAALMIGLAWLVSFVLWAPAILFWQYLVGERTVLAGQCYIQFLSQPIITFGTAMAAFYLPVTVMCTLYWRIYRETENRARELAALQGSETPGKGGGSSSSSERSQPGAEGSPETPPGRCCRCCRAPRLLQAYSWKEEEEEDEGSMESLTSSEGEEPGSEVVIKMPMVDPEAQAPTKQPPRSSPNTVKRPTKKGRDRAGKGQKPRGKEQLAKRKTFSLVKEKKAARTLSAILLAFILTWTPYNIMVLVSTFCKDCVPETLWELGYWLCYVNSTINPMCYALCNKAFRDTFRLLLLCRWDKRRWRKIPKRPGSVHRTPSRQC
smiles,measurement,setting,value
"C=CC(=O)N[C@H]1CCC[C@H]1NC(=O)c1sc2nccc3c2c1NC(=O)N3c1cnc(CC(C)C)cc1C (atropisomer, axis not shown) [compound of Formula (III), N-((1R,2S)-2-Acrylamidocyclopentyl)-5-(S)-(6-isobutyl-4-methylpyridin-3-yl)-4-oxo-4,5-dihydro-3H-1-thia-3,5,8-triazaacenaphthylene-2-carboxamide]",inhibition at 10 µM,5-HT1A (h),< 10%
same,inhibition at 10 µM,5-HT2A (h),< 10%
same,inhibition at 10 µM,5-HT3 (h),< 10%
same,inhibition at 10 µM,5-HT5A (h),< 10%
same,inhibition at 10 µM,5-HT7 (h),< 10%
same,inhibition at 10 µM,A1 (h),< 10%
same,inhibition at 10 µM,A2A (h),< 10%
same,inhibition at 10 µM,A3 (h),< 10%
same,inhibition at 10 µM,AT1 (h),< 10%
same,inhibition at 10 µM,B2 (h),< 10%
same,inhibition at 10 µM,CCKA (h) (CCK1),23.7%
same,% Inhibition at 10 μM,Ca^2+ channel,— (no inhibition observed)
same,% Inhibition at 10 μM,Cl^− channel,25.1%
same,inhibition at 10 µM,D2S (h),< 10%
same,inhibition at 10 µM,DA transporter (h),< 10%
same,% Inhibition at 10 μM,GABA,— (no inhibition observed)
same,inhibition at 10 µM,H2 (h),< 10%
same,% Inhibition at 10 μM,K^+V channel,12.2%
same,inhibition at 10 µM,M1 (h),< 10%
same,inhibition at 10 µM,M2 (h),< 10%
same,inhibition at 10 µM,MC4 (h),< 10%
same,inhibition at 10 µM,MT1 (h),13.4%
same,inhibition at 10 µM,NE transporter (h),< 10%
same,inhibition at 10 µM,NK2 (h),16%
same,inhibition at 10 µM,NK3 (h),38.9%
same,% Inhibition at 10 μM,Na^+ channel (site 2),— (no inhibition observed)
same,inhibition at 10 µM,ORL1 (h) (NOP),14.6%
same,% Inhibition at 10 μM,SK^+Ca channel,— (no inhibition observed)
same,inhibition at 10 µM,Y1 (h),44.4%
same,inhibition at 10 µM,Y2 (h),< 10%
same,% Inhibition at 10 μM,alpha 2,— (no inhibition observed)
same,inhibition at 10 µM,beta 1 (h),< 10%
same,% Inhibition at 10 μM,kappa (KOP),— (no inhibition observed)
same,inhibition at 10 µM,mu (h) (MOP),< 10%
same,% Inhibition at 10 μM,sst (non-selective),— (no inhibition observed)
same,"Extraction Ratio, liver microsomes",[1]; Human,0.63
same,microsomal CLint,"[1]; human, liver microsomes",31.1 µL/min/mg
same,half-life,"[1]; human, liver microsomes, read-out: T1/2, liver microsomes",22.3 min
